In patent US9758503B1, “Coumarin-gossypol derivatives with antitumor activities and a method of preparing the same” (SHAANXI UNIVERSITY OF SCIENCE AND TECHNOLOGY, priority 2017, dated 2017):
Like-named read-outs stand apart in the source and are kept apart here.

Key:
[1] = system: human lung cancer cells (A-549); assay: MTT tumor cell proliferation inhibition test, A-549; format: cell-based; details: read-out: Half Inhibitory Concentration IC50 A549
Protocol: (§1) The compounds of the present invention were subjected to tumor cell proliferation inhibition test, and conventional MTT method was used.
(§2) Cell lines: human hepatoma cells (HepG2), human lung cancer cells (A-549), human gastric cancer cells (SGC-7901). The culture medium was DMEM+15% NBS+double antibody.
(§3) Sample solution preparation: after dissolving with DMSO (Merck), PBS (−) was added to obtain 100 μmol/L solution or homogeneous suspension. The solution was diluted with PBS (−) in DMSO to a final concentration of 0.1, 1, 10, 20, 40, 60, 80, 100 μmol/L.
(§4) Gossypol was used as control solution, prepared under the same condition.
(§5) Cell culture: adherent growth Tumor cells were cultured in 1640 medium containing 10% inactivated neonatal bovine serum and penicillin, streptomycin (1 million U/L), placed in carbon dioxide incubator at 37° C., 5% CO2, and saturated humidity. Cells were treated serially passaged 2-3 times. The first culture was washed with PBS 2 times, and digested with trypsin. Fresh culture medium was added evenly, cells were adjusted to a appropriate concentration and transferred into a new culture flask. Cell in an exponential phase were chosen for the tests.
(§6) MTT Assay for Cell Viability and IC50 Determination:
(§7) Experimental Principle: Living cells mitochondria in the dehydrogenase can reduce yellow MTT to water-insoluble blue-violet product MT (MTT formazan), deposited in the cells. The amount of production is proportional to the number of living cells. […] DMSO can dissolve blue violet crystals, and the color depth is proportional to the amount contained, so the absorbance measured by the microplate reader can reflect the cell viability.
(§8) Methods: The exponential phase cells were digested and counted and seeded in 96-well plates at a density of 2×10^4/mL at 100 μl per well. After 24 hours of incubation, the cells to be tested were treated with 0.1, 1, 10, 20, 40, 60, 80, 100 μmol/L of the compounds. Each experimental group had 5 wells in each concentration, and the culture medium containing 0.4% DMSO was used as control. After 48 hours, the supernatant was discarded, and 100 μl of MTT ((2-(4,5-dimethyl-2-thiazolyl)-3,5-diphenyl-2H-[…]) (1 mg/mL) was added to each well. After another 4 hours, the supernatant was discarded, and 100 μl of DMSO was added to each well. After mixing, the absorbance was measured at 570 nm using a microplate reader. An IC50 calculation software was used to determine the half inhibitory concentration (IC50).

[2] = system: human hepatoma cells (HepG2); assay: MTT tumor cell proliferation inhibition test, HepG2; format: cell-based; details: read-out: Half Inhibitory Concentration IC50 HepG2
Protocol: as §1, §2, §3, §4, §5, §6, §7, §8

[3] = system: human gastric cancer cells (SGC-7901); assay: MTT tumor cell proliferation inhibition test, SGC-7901; format: cell-based; details: read-out: Half Inhibitory Concentration IC50 SGC-7901
Protocol: as §1, §2, §3, §4, §5, §6, §7, §8

[4] = system: three cell lines tested (HepG2, A-549, SGC-7901); assay: MTT tumor cell proliferation inhibition test, summary over the three cell lines; format: cell-based, human
Protocol: as §1, §2, §3, §4
as §5, with “Cell in an exponential phase were chosen for the tests.” left out
as §7, with “the” for “the cells. The amount of production is proportional to the number of living”
as §8, with “After 24 hours of incubation, the cells to be tested were treated with 0.1, 1, 10, 20, 40, 60, 80, 100 μmol/L of the compounds. Each experimental group had 5 wells in each concentration, and the culture medium containing 0.4% DMSO was used as control.” left out

[5] = A549 cells, MTT, 48 hours treatment
[6] = HepG2 cells, MTT, 48 hours treatment
[7] = SGC-7901 cells, MTT, 48 hours treatment

In the case of `Cc1cc2c(C(C)C)c(O)c(O)c(C=O)c2c(O)c1-c1c(C)cc2c(C(C)C)c(O)c(O)c(C=O)c2c1O` [Gossypol], the IC50 ([1]; A549, 48 h) is reported as 26.3 ± 1.89 µM, the IC50 ([2]; HepG2, 48 h) is reported as 18.4 ± 0.71 µM and the IC50 ([3]; SGC-7901, 48 h) is reported as 43.6 ± 2.03 µM.
`Cc1cc2c(c(O)c1-c1c(C)cc3c(C(C)C)c(O)c(O)c(C=O)c3c1O)/C(=C/c1c(O)c3c(O)cc(O)cc3oc1=O)C(=O)C(O)=C2C(C)C` [Compound A-5, (Z)-1,1′,6,6′,7-pentahydroxy-5,5′-diisopropyl-3,3′-dimethyl-7′-oxo-8′-((4,5,7-trihydroxy-2-oxo-2H-chromen-3-yl)methylene)-7′,8′-dihydro-[2,2′-binaphthalene]-8-carbaldehyde] showed an IC50 [1, 5] greater than 100 µM, an IC50 [2, 6] greater than 100 µM and an IC50 [3, 7] of 88.8 ± 3.02 µM.
`Cc1cc2c(c(O)c1-c1c(C)cc3c(c1O)/C(=C/c1c(O)c4ccccc4oc1=O)C(=O)C(O)=C3C(C)C)/C(=C/c1c(O)c3ccccc3oc1=O)C(=O)C(O)=C2C(C)C` [Compound B-1, (8Z,8′Z)-1,1′,6,6′-tetrahydroxy-8,8′-bis((4-hydroxy-2-oxo-2H-chromen-3-yl)methylene)-5,5′-diisopropyl-3,3′-dimethyl-[2,2′-binaphthalene]-7,7′(8H,8′H)-dione] was tested, and the IC50 [1, 5] was 22.3 ± 0.9 µM, the IC50 [2, 6] was 15.2 ± 0.34 µM and the “antitumor activities (verbal summary)” value [4] was “good antitumor activities”. For the same compound, the IC50 [3, 7] was 26.9 ± 1.35 µM.
For `Cc1cc2c(c(O)c1-c1c(C)cc3c(C(C)C)c(O)c(O)c(C=O)c3c1O)/C(=C/c1c(O)c3ccc(O)cc3oc1=O)C(=O)C(O)=C2C(C)C` [Compound A-3, (Z)-8′-((4,7-dihydroxy-2-oxo-2H-chromen-3-yl)methylene)-1,1′,6,6′,7-pentahydroxy-5,5′-diisopropyl-3,3′-dimethyl-7′-oxo-7′,8′-dihydro-[2,2′-binaphthalene]-8-carbaldehyde], the IC50 [1, 5] was 26.7 ± 1.12 µM, the IC50 [2, 6] was 17.8 ± 0.95 µM and the “antitumor activities (verbal summary)” value [4] was “good antitumor activities”. It also gave an IC50 [3, 7] of 30.7 ± 1.31 µM.
In the case of `COc1cccc2c(O)c(/C=C3\C(=O)C(O)=C(C(C)C)c4cc(C)c(-c5c(C)cc6c(C(C)C)c(O)c(O)c(C=O)c6c5O)c(O)c43)c(=O)oc12` [Compound A-4, (Z)-1,1′,6,6′,7-pentahydroxy-8′-((4-hydroxy-8-methoxy-2-oxo-2H-chromen-3-yl)methylene)-5,5′-diisopropyl-3,3′-dimethyl-7′-oxo-7′,8′-dihydro-[2,2′-binaphthalene]-8-carbaldehyde], the IC50 [1, 5] is reported as 43.4 ± 1.21 µM, the IC50 [2, 6] is reported as 26.5 ± 1.02 µM and the IC50 [3, 7] is reported as 31.2 ± 1.33 µM.
With `Cc1cc2c(c(O)c1-c1c(C)cc3c(c1O)/C(=C/c1c(O)c4cc(Cl)ccc4oc1=O)C(=O)C(O)=C3C(C)C)/C(=C/c1c(O)c3cc(Cl)ccc3oc1=O)C(=O)C(O)=C2C(C)C` [Compound B-2, (8Z,8′Z)-8,8′-bis((6-chloro-4-hydroxy-2-oxo-2H-chromen-3-yl)methylene)-1,1′,6,6′-tetrahydroxy-5,5′-diisopropyl-3,3′-dimethyl-[2,2′-binaphthalene]-7,7′(8H,8′H)-dione] the IC50 [1, 5] was 68.5 ± 2.44 µM, the IC50 [2, 6] was greater than 100 µM and the IC50 [3, 7] was greater than 100 µM.
With `COc1cccc2c(O)c(/C=C3\C(=O)C(O)=C(C(C)C)c4cc(C)c(-c5c(C)cc6c(c5O)/C(=C/c5c(O)c7cccc(OC)c7oc5=O)C(=O)C(O)=C6C(C)C)c(O)c43)c(=O)oc12` [Compound B-4, (8Z,8′Z)-1,1′,6,6′-tetrahydroxy-8,8′-bis((4-hydroxy-8-methoxy-2-oxo-2H-chromen-3-yl)methylene)-5,5′-diisopropyl-3,3′-dimethyl-[2,2′-binaphthalene]-7,7′(8H,8′H)-dione] the IC50 [1, 5] was 38.4 ± 0.79 µM, the IC50 [2, 6] was 22.4 ± 0.58 µM and the IC50 [3, 7] was 40 ± 1.43 µM.
In the case of `Cc1cc2c(c(O)c1-c1c(C)cc3c(c1O)/C(=C/c1c(O)c4c(O)cc(O)cc4oc1=O)C(=O)C(O)=C3C(C)C)/C(=C/c1c(O)c3c(O)cc(O)cc3oc1=O)C(=O)C(O)=C2C(C)C` [Compound B-5, (8Z,8′Z)-1,1′,6,6′-tetrahydroxy-5,5′-diisopropyl-3,3′-dimethyl-8,8′-bis((4,5,7-trihydroxy-2-oxo-2H-chromen-3-yl)methylene)-[2,2′-binaphthalene]-7,7′(8H,8′H)-dione], the IC50 [1, 5] is reported as greater than 100 µM, the IC50 [2, 6] is reported as greater than 100 µM and the IC50 [3, 7] is reported as 54.3 ± 2.85 µM.
In the case of `Cc1cc(C)c2c(O)c(/C=C3\C(=O)C(O)=C(C(C)C)c4cc(C)c(-c5c(C)cc6c(c5O)/C(=C/c5c(O)c7c(C)cc(C)cc7oc5=O)C(=O)C(O)=C6C(C)C)c(O)c43)c(=O)oc2c1` [Compound B-6, (8Z,8′Z)-1,1′,6,6′-tetrahydroxy-8,8′-bis((4-hydroxy-5,7-dimethyl-2-oxo-2H-chromen-3-yl)methylene)-5,5′-diisopropyl-3,3′-dimethyl-[2,2′-binaphthalene]-7,7′(8H,8′H)-dione], the IC50 [1, 5] is reported as greater than 100 µM, the IC50 [2, 6] is reported as 58.6 ± 3.23 µM and the IC50 [3, 7] is reported as greater than 100 µM.
Work on `Cc1cc2c(c(O)c1-c1c(C)cc3c(c1O)/C(=C/c1c(O)c4ccc(O)cc4oc1=O)C(=O)C(O)=C3C(C)C)/C(=C/c1c(O)c3ccc(O)cc3oc1=O)C(=O)C(O)=C2C(C)C` [Compound B-3, (8Z,8′Z)-8,8′-bis((4,7-dihydroxy-2-oxo-2H-chromen-3-yl)methylene)-1,1′,6,6′-tetrahydroxy-5,5′-diisopropyl-3,3′-dimethyl-[2,2′-binaphthalene]-7,7′(8H,8′H)-dione] yielded an IC50 [1, 5] of 28.6 ± 0.64 µM, an IC50 [2, 6] of 16.7 ± 0.45 µM and an IC50 [3, 7] of 33.2 ± 1.01 µM.
For `Cc1cc2c(c(O)c1-c1c(C)cc3c(C(C)C)c(O)c(O)c(C=O)c3c1O)/C(=C/c1c(O)c3ccccc3oc1=O)C(=O)C(O)=C2C(C)C` [Compound A-1, (Z)-1,1′,6,6′,7-pentahydroxy-8′-((4-hydroxy-2-oxo-2H-chromen-3-yl)methylene)-5,5′-diisopropyl-3,3′-dimethyl-7′-oxo-7′,8′-dihydro-[2,2′-binaphthalene]-8-carbaldehyde], the IC50 [1, 5] was 17.1 ± 0.72 µM, the IC50 [2, 6] was 10.7 ± 0.65 µM and the “antitumor activities (verbal summary)” value [4] was “best antitumor activities”. For the same compound, the IC50 [3, 7] was 21.3 ± 1.34 µM.
For `Cc1cc(C)c2c(O)c(/C=C3\C(=O)C(O)=C(C(C)C)c4cc(C)c(-c5c(C)cc6c(C(C)C)c(O)c(O)c(C=O)c6c5O)c(O)c43)c(=O)oc2c1` [Compound A-6, (Z)-1,1′,6,6′,7-pentahydroxy-8′-((4-hydroxy-5,7-dimethyl-2-oxo-2H-chromen-3-yl)methylene)-5,5′-diisopropyl-3,3′-dimethyl-7′-oxo-7′,8′-dihydro-[2,2′-binaphthalene]-8-carbaldehyde], the IC50 [1, 5] was greater than 100 µM, the IC50 [2, 6] was 42.1 ± 1.04 µM and the IC50 [3, 7] was 32.6 ± 1.81 µM.
`Cc1cc2c(c(O)c1-c1c(C)cc3c(C(C)C)c(O)c(O)c(C=O)c3c1O)/C(=C/c1c(O)c3cc(Cl)ccc3oc1=O)C(=O)C(O)=C2C(C)C` [Compound A-2, (Z)-8′-((6-chloro-4-hydroxy-2-oxo-2H-chromen-3-yl)methylene)-1,1′,6,6′,7-pentahydroxy-5,5′-diisopropyl-3,3′-dimethyl-7′-oxo-7′,8′-dihydro-[2,2′-binaphthalene]-8-carbaldehyde] was tested, and the IC50 [1, 5] was greater than 100 µM, the IC50 [2, 6] was greater than 100 µM and the IC50 [3, 7] was greater than 100 µM.
